Laboratory results reported in patent US8093288B2, “Genipin derivatives and uses thereof” (Beth Israel Deaconess Medical Center, priority 2003, dated 2012).

Experiments:
Assay type in all cases: cell-based
isolated thymocytes = assay: Proton leak in isolated thymocytes
From the text: (§1) It has been shown that addition of high levels of superoxide to isolated mitochondrial stimulates proton leak if UCP1, UCP2 or UCP3 (collectively “UCPs”) are present.

[1] = tested on: thymocytes that are deficient in UCP2; assay: Proton leak in thymocytes deficient in UCP2
From the text: as §1

isolated islets = assay: ATP levels and insulin secretion in isolated islets
From the text: as §1

UCP2 deficient islets = assay: ATP levels and insulin secretion in UCP2 deficient islets
From the text: as §1

[2] = tested on: pancreatic islets from wildtype mice; assay: Insulin secretion in isolated pancreatic islets from wildtype mice; settings: 5.5 mM glucose; 5 μM D1; 37° C. for 60 min; WT islets; FIG. 11C
Experimental: As used or herein, pancreatic islets from wildtype and UCP2 knockout mice were isolated according to a method used for rats (Cawthorn and Chan, Mol. Cell. Endocrinol. 1991, 75:197-204, the entire teachings of which are incorporated herein by reference), except that the total exposure to type XI collagenase (Worthington Biochemical Co., NJ) was 30 min. and the Ficoll gradient was altered to layers of 25%, 23%, 21%, and 11%. Islets were harvested from the 11%-21% interface.
Islets were cultured in RPMI medium containing 11.0 mM glucose and supplemented with 1% penicillin-streptomycin. 7.5% fetal bovine serum (all from Gibco/BRL, Burlington, ON), and 10 mM Hepes (Sigma). After culturing for 20-24 hr, the islets were transferred to microcentrifuge tubes, pelleted (800 g for 5 min), and the medium aspirated and replaced with 1.0 mL DME medium containing 1% gelatin and 5.5 mM glucose with no genipin (control), 50 nM genipin, 0.5 μM genipin, and 5 μM genipin. For insulin secretion studies, the three islets were incubated per tube. After incubation at 37° C. for 60 min., the islets were centrifuged. The supernatant was collected and stored at −80° C., and then later assayed for insulin using Rat Insulin ELISA Kit (Cat. No. INSKR020, Crystal Chem., Inc., Chicago, Ill.).
FIGS. 11B and 11C show their effects on insulin secretion. Pancreatic islets were isolated from WT or UCP2 knockout (KO) mice. […]

Row | Structure (SMILES) | proton leak (isolated thymocytes) | proton leak [1] | ATP levels (isolated islets) | insulin secretion (isolated islets) | ATP levels and insulin secretion (UCP2 deficient islets) | insulin secretion [2]
1 | O=C(O)c1ccc(/C2=C3\C=CC(=N3)/C(c3ccc(C(=O)O)cc3)=c3/cc/c4[n]3[Mn]([Cl])[n]3c2ccc3/C(c2ccc(C(=O)O)cc2)=C2/C=CC(=N2)\C=4c2ccc(C(=O)O)cc2)cc1 [MnTBAP] | decreases proton leak | not present | increased ATP levels | increased insulin secretion | absent | 
2 | COC(=O)C1=CO[C@@H]2OC[C@@]3(O)[C@@H]2[C@@H]1C[C@H]3Cl [compound 55] |  |  |  |  |  | increases insulin secretion in WT islets
